The target in experiment [1] is T1, Human soluble guanylate cyclase enzyme (hsGC) (Homo sapiens, UniProt Q02108+Q02153).
T1 construct: purchased Enzo Inc. ALX-201-177
T1 sequence (Q02153 1-619): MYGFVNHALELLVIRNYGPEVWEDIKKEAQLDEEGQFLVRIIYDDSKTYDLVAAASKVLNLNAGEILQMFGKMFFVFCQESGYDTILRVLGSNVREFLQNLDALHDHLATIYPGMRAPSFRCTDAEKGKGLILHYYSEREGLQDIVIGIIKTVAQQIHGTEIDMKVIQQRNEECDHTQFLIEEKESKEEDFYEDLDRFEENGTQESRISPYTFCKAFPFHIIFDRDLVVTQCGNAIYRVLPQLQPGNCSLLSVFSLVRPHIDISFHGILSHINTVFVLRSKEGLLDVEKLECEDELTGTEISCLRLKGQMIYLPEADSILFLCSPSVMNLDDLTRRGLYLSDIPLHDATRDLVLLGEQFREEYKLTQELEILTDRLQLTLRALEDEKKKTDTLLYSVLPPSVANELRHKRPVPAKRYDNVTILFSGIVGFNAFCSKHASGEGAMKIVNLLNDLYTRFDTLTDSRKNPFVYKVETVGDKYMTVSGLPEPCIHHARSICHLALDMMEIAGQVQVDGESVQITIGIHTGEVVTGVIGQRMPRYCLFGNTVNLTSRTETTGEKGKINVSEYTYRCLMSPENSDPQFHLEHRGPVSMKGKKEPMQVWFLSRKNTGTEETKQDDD
T1 sequence (Q02108 1-690): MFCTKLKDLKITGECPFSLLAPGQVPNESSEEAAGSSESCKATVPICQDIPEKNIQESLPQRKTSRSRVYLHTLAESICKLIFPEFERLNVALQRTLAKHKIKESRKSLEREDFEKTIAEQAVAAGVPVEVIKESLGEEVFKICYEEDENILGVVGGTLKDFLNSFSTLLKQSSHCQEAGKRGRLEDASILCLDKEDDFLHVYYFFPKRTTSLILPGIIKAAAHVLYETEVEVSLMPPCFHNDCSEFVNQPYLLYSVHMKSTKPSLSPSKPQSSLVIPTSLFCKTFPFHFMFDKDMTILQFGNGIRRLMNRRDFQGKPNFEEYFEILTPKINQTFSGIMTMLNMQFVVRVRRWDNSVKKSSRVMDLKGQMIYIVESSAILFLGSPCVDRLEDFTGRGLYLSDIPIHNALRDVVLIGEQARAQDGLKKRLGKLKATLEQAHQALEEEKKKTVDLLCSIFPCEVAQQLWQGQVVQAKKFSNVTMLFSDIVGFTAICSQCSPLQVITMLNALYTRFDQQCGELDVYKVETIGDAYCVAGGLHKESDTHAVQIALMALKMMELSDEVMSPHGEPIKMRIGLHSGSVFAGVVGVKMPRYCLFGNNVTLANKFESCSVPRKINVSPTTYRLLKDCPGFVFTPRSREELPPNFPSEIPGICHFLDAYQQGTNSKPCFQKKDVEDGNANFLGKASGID
Briefly: Purified human sGC enzyme synergy assay in the presence of sodium nitroprusside (SNP). It is filed as biochemical. The conditions noted are these: 30 μM compound, 1 μM SNP; fold change of specific activity vs DMSO control. The method, then: (§1) Human soluble guanylate cyclase enzyme (hsGC) obtained from Enzo Inc. (P/N: ALX-201-177) was used to evaluate the activity of test compounds. The assay reactions contained 0.1 M Tris (pH 8.0), 0.5 mg/mL BSA (pH 8.0), 2 mM DTT, 2 mM MgCl2, 300 μM GTP, 1 mM 3-isobutyl-1-methylxanthine (IBMX) and 5 ng human soluble guanylate cyclase enzyme. Test compounds in DMSO were then added (2 μL, 10 or 30 μM final concentration) and incubated (water, 200 μL, 96-well plate format) at 37° C. for 30 minutes. The controls were carried out using 2 μL DMSO. After the 30 minute incubation, the reaction was stopped with the addition of 200 μL of cold methanol. The plate was then centrifuged at 3,200 rpm for 10 minutes at room temperature. Supernatants (200 μL) were collected and transferred to a new 96 well plate for analysis by HPLC LC/MS/MS.
(§2) An 8 point cGMP (Sigma-Aldrich P/N: G6129) standard curve was prepared in assay buffer ranging from 0.156-20 μM. Samples for the cGMP standard curve were then diluted with an equal volume of methanol resulting in final cGMP concentrations of 0.078-10 μM.
(§3) The cGMP standard curve was generated using GraphPad Prism Software.
Calculations: Specific Activity was determined by the amount of cGMP formed (nmoles) per mg of sGC per min. Enzyme “fold-change” was calculated by dividing Specific Activity for test compounds by Specific Activity of DMSO controls. […]

Experiment [2] has as its target T2, soluble guanylate cyclase (sGC) (Homo sapiens, UniProt Q02108+Q02153).
T2 construct: endogenously expressing soluble guanylate cyclase (sGC); endogenous in cells; host or cells: HEK293
T2 sequence (Q02153 1-619): T1 sequence (Q02153 1-619)
T2 sequence (Q02108 1-690): T1 sequence (Q02108 1-690)
Briefly: sGC-HEK-cGMP assay with SNP incubation (LC/MS read-out). The following applies: 10 μM SNP, 100% = BAY 41-2272 at 10 μM with 100 μM SNP. It is filed as cell-based. The method, then:
(Assay Run with SNP Incubation)
Human embryonic kidney cells (HEK293), endogenously expressing soluble guanylate cyclase (sGC), were used to evaluate the activity of test compounds. Compounds stimulating the sGC receptor should cause an increase in the intracellular concentration of cGMP. HEK 293 cells were seeded in Dulbecco's Modification of Eagle's Medium supplemented with fetal bovine serum (10% final) and L-glutamine (2 mM final) in a 200 μL volume at a density of 1×10^5 cells/well in a poly-D-lysine coated 96 well flat bottom plate and grown overnight at 37° C. Medium was aspirated and cells were washed with 1× Hank's Buffered Saline Salt Solution (200 μL). Cells were then incubated for 15 minutes at 37° C. with 200 μL of a 0.5 mM 3-isobutyl-1-methylxanthine (IBMX) solution. Test article and sodium nitroprusside solutions (x μM concentration for test article solution and 10 μM concentration for SNP solution; wherein x is one of the following concentrations);
were then added to the assay mixture (2 μL each) and the resulting mixture incubated at 37° C. for 10 minutes. After the 10 minute incubation, the assay mixture was aspirated and 0.1M HCl (200 μL) was added to the cells. The plate was incubated at 4° C. for 30 minutes in the 0.1M HCl to stop the reaction and lyse the cells. The plates were then centrifuged at 1,200 g for 5 minutes at room temperature. Supernatants were collected and transferred to a new flat bottom 96 well plate for analysis by HPLC-MS. Vehicle controls were carried out using DMSO (1%) solutions. A known sGC stimulator, BAY 41-2272, was used as the positive control. Samples were diluted with an equal volume of 1 M Ammonium Acetate (pH 7) to neutralize samples for better chromatography. A 2×cGMP standard solution was prepared in 0.1 M HCl and then diluted with an equal volume of 1 M Ammonium Acetate, with the following final concentrations in nM: 1024, 512, 256, 128, 64, 32, 16, 8, 4, 2, 1. cGMP concentrations in the test plates were determined from each sample using the LC/MS conditions shown in Table 2 below and the calculated cGMP standard curve. EC50 values were calculated from concentration-response curves generated with GraphPad Prism Software.
The biological activities of some of the compounds of Formula I or Formula Ib determined with the sGC-HEK assay with SNP incubation are summarized in Tables 3A and 3B.

Experiment [3] concerns the target T1, Human soluble guanylate cyclase enzyme (hsGC). Nature of the experiment: Purified human sGC enzyme activity assay (without SNP). The following applies: 30 μM compound, fold change of specific activity vs DMSO control. It is filed as biochemical. The method, then: as §1, §2, §3
Calculations: Specific Activity was determined by the amount of cGMP formed (nmoles) per mg of sGC per min. Enzyme “fold-change” was calculated by dividing Specific Activity for test compounds by Specific Activity of DMSO controls.

Experiment [4] deals with Guinea pig tracheal smooth muscle. Nature of the experiment: Electrical field stimulated guinea pig tracheal smooth muscle contraction (ex vivo). The conditions noted are these: sub-maximal EFS; pooled data of three experiments; 95% CI 0.78-0.94; read-out: IC50, inhibition of EFS-induced tracheal smooth muscle contraction. The source says: It is possible to assess the bronchodilating effects of sGC stimulators by using the system described below. This system allowed us to determine potency, efficacy and duration of action of several sGC stimulators, as well as to assess potential side effects such as blood pressure, or heart rate changes.
Animals: Guinea pig, Dunkin Hartley, male, Full barrier-bred and certified free of specific micro-organisms on receipt 525-609 g on the experimental day, Harlan UK Ltd. Guinea pigs were housed in a group of 4 in solid-bottomed cages with Gold Flake bedding in a controlled environment (airflow, temperature and humidity). Food (FD1, Special Diet Services) and water were provided ad libitum.
On each experimental day, a guinea pig was killed by exposure to a rising concentration of CO2 and the trachea removed. […] Tissues were washed with Kreb's buffer and stimulated using the previously determined sub-maximal voltage for 1 hour to establish a stable baseline contraction prior to assessment of compound activity.
A cumulative dose response curve (DRC) to each test substance was then performed and changes in smooth muscle contraction measured. The effect of each test substance in each experiment was expressed as a percentage inhibition of the baseline contraction, normalized to the relevant vehicle controls. […]

Molecules are shown by their SMILES.

In general, Emax refers to the maximal effect, on the per cent scale that the assay sets. Turning to `Nc1nc(-n2cc(-c3ncco3)c(Cc3ccccc3F)n2)ncc1F` [Compound I-8], in experiment [1], the “Enzyme Activity (increase at 30 μM with SNP)” value is on record as “E (E = 20 to 30 fold increase)”. In addition, the Emax at 10 µM in experiment [2] (10 μM compound, read-out: HEK assay (Percent Emax at 10 μM)) is 60 to 80%. Besides, the Emax at 30 µM in experiment [2] (30 μM compound, read-out: HEK assay (Percent Emax at 30 μM)) lay in the range of 60 to 80%. In addition, the “Enzyme Activity (increase at 30 μM without SNP)” value in experiment [3] was “C (C = 5 to <10 fold increase)”.

The IC50 is the point on the concentration scale where inhibition reaches its midpoint. With `CC(C)[N+]1(C)[C@@H]2CC[C@H]1CC(OC(=O)C(CO)c1ccccc1)C2` (some centres unmarked) [Ipratropium bromide], in experiment [4], the IC50 came to 0.86 nM.

The values above are taken from US9487508B2, “SGC stimulators” (IRONWOOD PHARMACEUTICALS, INC., priority 2012, dated 2016).
